Test results published in ChEMBL document CHEMBL1201862, “PubChem BioAssay data set” (2004).
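How tested: cells in 96-well plates exposed to compound for 48 hours at five concentrations. Here, GI50 denotes the concentration required for 50% inhibition of growth.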 Active and inactive are the calls of the source. Rule as the data show it: active = GI50 up to about 1.1 µM and inactive = higher.

Key:
Experiment in all cases: DTP human tumour cell line panel, 48 h
[1] = test system: HL-60
[2] = test system: A498
[3] = test system: CCRF-CEM
[4] = test system: DMS-273
[5] = test system: MOLT-4
[6] = test system: HCC 2998
[7] = test system: UACC-257
[8] = test system: SF-539
[9] = test system: NCI-H23
[10] = test system: SW-620
[11] = test system: SR
[12] = test system: HT-29
[13] = test system: XF498
[14] = test system: SN12C
[15] = test system: DU-145
[16] = test system: HCT-15
[17] = test system: NCI-H522
[18] = test system: U-251
[19] = test system: OVCAR-5
[20] = test system: M14
[21] = test system: OVCAR-4
[22] = test system: SNB-78
[23] = test system: TK-10
[24] = test system: HOP-62
[25] = test system: 786-0
[26] = test system: DMS-114
[27] = test system: EKVX
[28] = test system: DLD-1
[29] = test system: IGROV-1
[30] = test system: UACC-62
[31] = test system: ACHN
[32] = test system: PC-3
[33] = test system: COLO 205
[34] = test system: HOP-18
[35] = test system: SK-MEL-5
[36] = test system: LOX IMVI
[37] = test system: UO-31
[38] = test system: RXF 393
[39] = test system: NCI/ADR-RES
[40] = test system: MDA-N
[41] = test system: SK-MEL-28
[42] = test system: SF-268
[43] = test system: KM-20L2
[44] = test system: M19-MEL
[45] = test system: MDA-MB-231
[46] = test system: RPMI-8226
[47] = test system: SK-MEL-2
[48] = test system: NCI-H226
[49] = test system: HOP-92
[50] = test system: MDA-MB-435
[51] = test system: A549
[52] = test system: K562
[53] = test system: BT-549
[54] = test system: MCF7
[55] = test system: SK-OV-3
[56] = test system: KM12
[57] = test system: SNB-75
[58] = test system: Malme-3M
[59] = test system: T47D
[60] = test system: HCT-116
[61] = test system: SNB-19
[62] = test system: OVCAR-8
[63] = test system: LXFL 529
[64] = test system: Hs-578T
[65] = test system: NCI-H460
[66] = test system: SF-295
[67] = test system: OVCAR-3
[68] = test system: CAKI-1

`CCCCCCCCCC[S+]([O-])CC(CO)NC(=O)/C=C/c1c(C)nc(O)nc1O` (stereo unspecified) was tested, and the GI50 [1] was 815 nM (active), the GI50 [2] was 1.09 µM (active) and the GI50 [3] was 136 nM (active). For the same compound, the GI50 [4] was 0.37 µM (active), the GI50 [5] was 518 nM (active) and the GI50 [6] was 244 nM (active). For the same compound, the GI50 [7] was 1.33 µM (inactive), the GI50 [8] was 0.484 µM (active) and the GI50 [9] was 0.504 µM (active). For the same compound, the GI50 [10] was 535 nM (active), the GI50 [11] was 65.2 µM (inactive) and the GI50 [12] was 1.36 µM (inactive). For the same compound, the GI50 [13] was 0.0376 µM (active), the GI50 [14] was 0.126 µM (active) and the GI50 [15] was 43.4 µM (inactive). For the same compound, the GI50 [16] was 1280 nM, the GI50 [17] was 93.8 nM (active) and the GI50 [18] was 132 nM (active). For the same compound, the GI50 [19] was 1.71 µM (inactive), the GI50 [20] was 11 µM (inactive) and the GI50 [21] was 199 nM (active). The GI50 [22] was 0.718 µM (active), the GI50 [23] was 1.76 µM (inactive) and the GI50 [24] was 1.06 µM (active). The GI50 [25] was 10.9 µM (inactive), the GI50 [26] was 0.152 µM (active) and the GI50 [27] was 0.774 µM (active). For the same compound, the GI50 [28] was 0.476 µM (active), the GI50 [29] was 0.959 µM (active) and the GI50 [30] was 0.628 µM (active). For the same compound, the GI50 [31] was 13.4 µM (inactive), the GI50 [32] was 1.43 µM (inactive) and the GI50 [33] was 0.247 µM (active). The GI50 [34] was 1.49 µM (inactive), the GI50 [35] was 918 nM (active) and the GI50 [36] was 877 nM (active). The GI50 [37] was 1.28 µM (inactive), the GI50 [38] was 0.474 µM (active) and the GI50 [39] was 4.43 µM (inactive). For the same compound, the GI50 [40] was 25.1 µM (inactive), the GI50 [41] was 1.21 µM (inactive) and the GI50 [42] was 0.149 µM (active). The GI50 [43] was 0.695 µM (active), the GI50 [44] was 0.475 µM (active) and the GI50 [45] was 2.97 µM (inactive). For the same compound, the GI50 [46] was 1.04 µM (active), the GI50 [47] was 0.721 µM (active) and the GI50 [48] was 0.8 µM (active). The GI50 [49] was 0.189 µM (active), the GI50 [50] was 14 µM (inactive) and the GI50 [51] was 2.22 µM (inactive). For the same compound, the GI50 [52] was 501 nM (active), the GI50 [53] was 10.5 µM (inactive) and the GI50 [54] was 252 nM (active). The GI50 [55] was 1.38 µM (inactive), the GI50 [56] was 202 nM (active) and the GI50 [57] was 0.272 µM (active). For the same compound, the GI50 [58] was 0.47 µM (active) and the GI50 [59] was 20.8 µM (inactive).

With `CCN(CC)CCC(=O)N1C/C(=C/c2ccccc2)C(=O)/C(=C\c2ccccc2)C1` the GI50 [1] was 383 nM (active), the GI50 [2] was 3.96 µM (inactive) and the GI50 [3] was 219 nM (active). For the same compound, the GI50 [4] was 1.42 µM (inactive), the GI50 [5] was 280 nM (active) and the GI50 [6] was 706 nM (active). For the same compound, the GI50 [7] was 2.1 µM (inactive), the GI50 [8] was 3.83 µM (inactive) and the GI50 [9] was 1.42 µM (inactive). The GI50 [10] was 195 nM (active), the GI50 [11] was 0.344 µM (active) and the GI50 [12] was 0.811 µM (active). For the same compound, the GI50 [13] was 2.63 µM (inactive), the GI50 [14] was 1.3 µM (inactive) and the GI50 [15] was 3.15 µM (inactive). The GI50 [16] was 1240 nM, the GI50 [17] was 746 nM (active) and the GI50 [18] was 762 nM (active). For the same compound, the GI50 [19] was 3.45 µM (inactive), the GI50 [20] was 1.52 µM (inactive) and the GI50 [60] was 0.321 µM (active). The GI50 [21] was 2170 nM (inactive), the GI50 [23] was 6.58 µM (inactive) and the GI50 [24] was 13.2 µM (inactive). For the same compound, the GI50 [25] was 2.16 µM (inactive), the GI50 [26] was 1.79 µM (inactive) and the GI50 [27] was 3.42 µM (inactive). For the same compound, the GI50 [28] was 1.29 µM (inactive), the GI50 [29] was 3.03 µM (inactive) and the GI50 [30] was 2.03 µM (inactive). For the same compound, the GI50 [31] was 2.78 µM (inactive), the GI50 [32] was 1.06 µM (active) and the GI50 [61] was 2.2 µM (inactive). For the same compound, the GI50 [33] was 2.31 µM (inactive), the GI50 [34] was 2.8 µM (inactive) and the GI50 [35] was 1760 nM (inactive). The GI50 [36] was 415 nM (active), the GI50 [37] was 1.71 µM (inactive) and the GI50 [38] was 1.51 µM (inactive). For the same compound, the GI50 [40] was 0.865 µM (active), the GI50 [41] was 1.82 µM (inactive) and the GI50 [62] was 1.35 µM (inactive). For the same compound, the GI50 [42] was 2.04 µM (inactive), the GI50 [43] was 1.71 µM (inactive) and the GI50 [63] was 1.56 µM (inactive). The GI50 [44] was 1.39 µM (inactive), the GI50 [45] was 0.845 µM (active) and the GI50 [46] was 0.114 µM (active). For the same compound, the GI50 [47] was 2.19 µM (inactive), the GI50 [48] was 5.32 µM (inactive) and the GI50 [49] was 4.52 µM (inactive). For the same compound, the GI50 [50] was 1.7 µM (inactive), the GI50 [51] was 4.76 µM (inactive) and the GI50 [52] was 141 nM (active). For the same compound, the GI50 [53] was 0.363 µM (active), the GI50 [64] was < 10 nM (active) and the GI50 [54] was 372 nM (active). The GI50 [55] was 8.57 µM (inactive), the GI50 [56] was 541 nM (active) and the GI50 [65] was 3.24 µM (inactive). For the same compound, the GI50 [66] was 2.11 µM (inactive), the GI50 [57] was 4.08 µM (inactive) and the GI50 [67] was 3.06 µM (inactive). For the same compound, the GI50 [58] was 2.58 µM (inactive), the GI50 [59] was 1.19 µM (inactive) and the GI50 [68] was 2.3 µM (inactive).

`O=C1CCC2(O)c3ccccc3C2Cc2ccccc21` (stereo unspecified) was tested, and the GI50 [1] was > 100000 nM (inactive), the GI50 [3] was > 100000 nM (inactive) and the GI50 [4] was > 100 µM (inactive). For the same compound, the GI50 [5] was > 100000 nM (inactive), the GI50 [6] was > 100000 nM (inactive) and the GI50 [7] was > 100 µM (inactive). For the same compound, the GI50 [8] was > 100 µM (inactive), the GI50 [9] was > 100 µM (inactive) and the GI50 [10] was > 100000 nM (inactive). For the same compound, the GI50 [11] was > 100 µM (inactive), the GI50 [12] was > 100 µM (inactive) and the GI50 [13] was > 100 µM (inactive). For the same compound, the GI50 [14] was > 100 µM (inactive), the GI50 [18] was > 100000 nM (inactive) and the GI50 [60] was > 100 µM (inactive). For the same compound, the GI50 [22] was > 100 µM (inactive), the GI50 [23] was > 100 µM (inactive) and the GI50 [24] was > 100 µM (inactive). For the same compound, the GI50 [25] was > 100 µM (inactive), the GI50 [26] was > 100 µM (inactive) and the GI50 [27] was > 100 µM (inactive). For the same compound, the GI50 [28] was > 100 µM (inactive), the GI50 [29] was > 100 µM (inactive) and the GI50 [30] was > 100 µM (inactive). For the same compound, the GI50 [31] was > 100 µM (inactive), the GI50 [61] was > 100 µM (inactive) and the GI50 [33] was > 100 µM (inactive). For the same compound, the GI50 [34] was > 100 µM (inactive), the GI50 [36] was > 100000 nM (inactive) and the GI50 [38] was > 100 µM (inactive). For the same compound, the GI50 [41] was > 100 µM (inactive), the GI50 [62] was > 100 µM (inactive) and the GI50 [42] was > 100 µM (inactive). For the same compound, the GI50 [43] was > 100 µM (inactive), the GI50 [44] was > 100 µM (inactive) and the GI50 [46] was > 100 µM (inactive). For the same compound, the GI50 [47] was > 100 µM (inactive), the GI50 [48] was > 100 µM (inactive) and the GI50 [49] was 70.1 µM (inactive). The GI50 [52] was > 100000 nM (inactive), the GI50 [56] was > 100000 nM (inactive) and the GI50 [65] was > 100 µM (inactive). The GI50 [66] was > 100 µM (inactive), the GI50 [57] was 63.8 µM (inactive) and the GI50 [67] was > 100 µM (inactive). For the same compound, the GI50 [58] was > 100 µM (inactive).
